The values that follow come from patent US6835842B2, “3-nitroisoxazoles and their use in the protection of materials” (Bayer Aktiengesellschaft, priority 2000, dated 2004).

Structures are written as SMILES. In brackets after ≈: the same amount, converted by molar mass. A value given as a limit tells only on which side of the number the result lay.

Holding throughout (assay type): cell-based
The subject of one test is Bacillus subtilis. The test can be described thus: Use Example A: minimum inhibitory concentration against bacteria on Landy agar. Particulars: 3 days at 28° C., 60-70% relative atmospheric humidity. As to the method:
(§1) The MIC is determined after 3 days of storage at 28° C. and 60-70% relative atmospheric humidity.

In the next test the test system is Pseudomonas aeroginosa. The test is described as above. Particulars: 3 days at 28° C., 60-70% relative atmospheric humidity. As for the experimental part:
as §1

The next test has as its system Aspergillus niger. Nature of the test: Use Example B: minimum inhibitory concentration against fungi on malt extract agar. Particulars: 2 weeks at 28° C., 60-70% relative atmospheric humidity. As to the method:
(§2) The MIC is determined after 2 weeks of storage at 28° C. and 60-70% relative atmospheric humidity.

The subject of another test is Chaetomium globusum. The description is as above. Particulars: 2 weeks at 28° C., 60-70% relative atmospheric humidity. As for the experimental part:
as §2

A further test concerns Penicillium brevicaule. Described as above. Particulars: 2 weeks at 28° C., 60-70% relative atmospheric humidity. As to the method:
as §2

As to `CCOc1ccc(-c2cc([N+](=O)[O-])no2)cc1Cl` [Example 5], the “Minimum inhibitory concentration Bacillus subtilis” value with Bacillus subtilis is under 40 ppm. Also, the “Minimum inhibitory concentration Pseudomonas aeroginosa” value in the test with Pseudomonas aeroginosa is given as over 400 ppm. Also, in the test on Aspergillus niger, the “Minimum inhibitory concentration Aspergillus niger” value is on record as 400 ppm. Also, in the test on Chaetomium globusum, the “Minimum inhibitory concentration Chaetomium globusum” value came to 100 ppm. Also, the “Minimum inhibitory concentration Penicillium brevicaule” value in the test on Penicillium brevicaule is listed as 200 ppm.

`O=[N+]([O-])c1cc(-c2ccccc2)on1` [Example 2]: the “Minimum inhibitory concentration Bacillus subtilis” value in the test on Bacillus subtilis is on record as under 40 ppm. For the same molecule, the “Minimum inhibitory concentration Pseudomonas aeroginosa” value with Pseudomonas aeroginosa was over 400 ppm. Moreover, the “Minimum inhibitory concentration Aspergillus niger” value in the test on Aspergillus niger was found to be 400 ppm. The “Minimum inhibitory concentration Chaetomium globusum” value in the test with Chaetomium globusum was 200 ppm. For the same molecule, the “Minimum inhibitory concentration Penicillium brevicaule” value with Penicillium brevicaule is recorded as 200 ppm.

In the case of `CCCCc1cc([N+](=O)[O-])no1` [Example 4], the “Minimum inhibitory concentration Bacillus subtilis” value in the test with Bacillus subtilis is given as under 40 ppm. In the test with Pseudomonas aeroginosa, the “Minimum inhibitory concentration Pseudomonas aeroginosa” value is 200 ppm. Moreover, in the test with Aspergillus niger, the “Minimum inhibitory concentration Aspergillus niger” value is listed as over 400 ppm. Besides, the “Minimum inhibitory concentration Chaetomium globusum” value in the test with Chaetomium globusum is on record as 400 ppm. For the same molecule, the “Minimum inhibitory concentration Penicillium brevicaule” value in the test on Penicillium brevicaule turned out to be 400 ppm.

The MIC is the smallest concentration in the dilution series that meets the test's criterion for growth inhibition. Higher therefore signals weaker potency. `O=[N+]([O-])c1ccon1` [Example 1, 3-Nitroisoxazole]: the minimum inhibitory concentration (MIC) is under 40 µg/mL in the test with Bacillus subtilis (Bacillus subtilis, 72 h); 100 µg/mL (≈ 877 µM) with Pseudomonas aeroginosa (Pseudomonas, 72 h); 100 µg/mL (≈ 877 µM) in the test on Aspergillus niger (Aspergillus niger, 336 h); 200 µg/mL (≈ 1750 µM) in the test with Chaetomium globusum (Chaetomium, 336 h); 100 µg/mL (≈ 877 µM) in the test on Penicillium brevicaule (Penicillium, 336 h).

As to `Cc1cc([N+](=O)[O-])no1` [Example 3], the “Minimum inhibitory concentration Bacillus subtilis” value with Bacillus subtilis is on record as under 40 ppm. The “Minimum inhibitory concentration Pseudomonas aeroginosa” value in the test with Pseudomonas aeroginosa worked out at 200 ppm. The “Minimum inhibitory concentration Aspergillus niger” value in the test with Aspergillus niger amounted to 200 ppm. Moreover, the “Minimum inhibitory concentration Chaetomium globusum” value in the test with Chaetomium globusum was 200 ppm. For the same molecule, the “Minimum inhibitory concentration Penicillium brevicaule” value with Penicillium brevicaule is reported as 200 ppm.
